This is an account of results in US20260256827A1, “Methods for treating lower back pain with hyaluronic acid” (priority 2023, published 2026).

Common to all, as to type: in vivo, human
For one assay, the system named is chronic low back pain. Put plainly: Example 4: Hyalgan injections, person, pain severity. To be noted: before Hyalgan. The method, then: (§1) In the Examples, unless otherwise specified, pain severity was assessed using a visual analog numerical rating scale ranging from 0 (no pain) to 10 (worst pain possible), and hyaluronic acid (HA) injections (Hyalgan™, 10 mg/mL, MW: 500,000 to 730,000 Daltons in 2 mL pre-filled syringes) were administered using a 30 gauge, ½″ needle.
Hyaluronic acid injections were administered in the form of Hyalgan ([…]) along the lateral margin of the left PSIS (two injections; 1 mL each). […] […] received subsequent injections on this visit: again two injections of 1 mL each along the lateral margins of […] left PSIS.

Assay [1] relates to chronic lower back pain with enthesopathy. Description: Example 3: HA injections, patient, pain severity on visual analog numerical rating scale. The note with it: tramadol and cyclobenzaprine together, before HA. The protocol:
as §1

The subject of assay [2] is chronic, bilateral lower back pain. Put plainly: Example 2: HA injections, patient, pain severity on visual analog numerical rating scale. To be noted: 75 mg bid from Nov. 9, 2023; recurrence reported Jan. 8, 2024. The protocol: as §1
On Oct. 5, 2023, a patient reported chronic, bilateral lower back pain, and more recent onset of pain in their feet that slowly spread to their lower leg, but mostly resides on the plantar surface of their feet. The lower back pain severity was 7/10 (between severe and very severe) at rest, and up to 9/10 (between very severe and worse pain possible) after standing all day.
On Oct. […] The injection locations were determined by findings of focal tenderness of the palpated sites illustrated in FIG. 1.
On Oct. 12, 2023, patient reported maximum lower back pain severity of 5-6/10 (severe). […] These injection locations were again determined by findings of focal tenderness of palpated sites illustrated in FIG. 1.
On Jan. […] These injection locations were again determined by findings of focal tenderness of palpated sites illustrated in FIG. 1.
On Mar. […] These injection locations were again determined by findings of focal tenderness of palpated sites illustrated in FIG. 1.

Assay [3] deals with peripheral neuropathy foot pain. Put plainly: Example 2 patient: treatment of peripheral neuropathy / foot pain. The note with it: 75 mg bid from Nov. 9, 2023. The protocol: Beginning on Oct. 2, 2023, the patient was treated for peripheral neuropathy lidocaine/prilocaine 2.5% cream applied to their feet bilaterally. […] 8, 2024.

Turning to `CC(C)Cc1ccc(C(C)C(=O)O)cc1` (stereo not drawn) [ibuprofen], the “benefit of prior treatment for low back pain” value with chronic low back pain is listed as “without benefit”.
Consider `COc1cccc(C2(O)CCCCC2CN(C)C)c1` (stereo not drawn) [tramadol], for which the “benefit of ongoing treatment for lower back pain” value in assay [1] is “helped only marginally”.
As for `CN(C)CCC=C1c2ccccc2C=Cc2ccccc21` [cyclobenzaprine], the “benefit of prior treatment for low back pain” value with chronic low back pain is “without benefit”. Further, the “benefit of ongoing treatment for lower back pain” value in assay [1] is recorded as “helped only marginally”.
In the case of `CC(C)C[C@H](CN)CC(=O)O` [pregabalin], the “effect on recurrence of lower back pain” value in assay [2] is listed as “did not prevent the recurrence”. For the same compound, the “effect on foot pain” value in assay [3] is given as “helpful”.
